Data as given in patent US20230190873A1, “METHODS AND COMPOSITIONS RELATED TO THE TREATMENT OF NURR1- AND PPARy-MEDIATED CONDITIONS” (The McLean Hospital Corporation, priority 2017, published 2023).
Several values for one entry are separate records, joined by “and”; a condition that tells them apart may be missing. Equal values may be shown once. Entries after “also recorded” stand apart in the source; their conditions may differ.

Assays:
Nurr1-LBD = assay: Nurr1 LBD-dependent luciferase reporter assay in SK-N-BE(2)C cells; format: cell-based; conditions: GAL4(DBD)-Nurr1(LBD) luciferase reporter
Protocol: The graph depicts Nurr1-inducing activities by tissue extracts from brain, lung, heart, and kidney. […] The effector plasmid pSVGAL4(DBD)Nurr1(LBD) and the reporter gene for p8XUASL-Luc, together with b-galactosidase expression vector, were transiently transfected into neuroblastoma SK-N-BE(2)C cells. 6 h after transfection, cells were treated with the various tissue extracts for 20 h and the reporter activities were determined by luciferase assay and normalized to the b-galactosidase activity. The basal level of transcriptional activity was normalized to 1. The bars represent means +S.E.M. from three independent experiments.
Graph depicts effects of single or combination treatment with AQ/CQ and prostaglandin (PGE) on Nurr1 activity. As a negative control, human neuroblastoma SK-N-BE(2)C cells transfected with p8XUAS-Luc and pGAL(DBD)Nurr1(LBD) constructs were treated with DMSO alone. As a positive control, cells were treated as described above and harvested 24 h after treatment. An expression vector encoding RSV b-gal was co-transfected to allow normalization for transfection efficiency. Luciferase activity is represented as fold induction after normalization to β-galactosidase compared to cells treated with DMSO alone. Data represent the means ±SEMs of triplicate samples.

PPARγ-LBD = target: T1, PPARγ-LBD (Homo sapiens, UniProt P37231); assay: PPARγ-LBD reporter construct transcriptional activation; format: cell-based
T1 construct: fold induction of reporter constructs of Nurr1-LBD, PPARa-LBD, and PPARγ-LBD; expressed in transfected cells
T1 sequence (P37231 238-503 limits assumed): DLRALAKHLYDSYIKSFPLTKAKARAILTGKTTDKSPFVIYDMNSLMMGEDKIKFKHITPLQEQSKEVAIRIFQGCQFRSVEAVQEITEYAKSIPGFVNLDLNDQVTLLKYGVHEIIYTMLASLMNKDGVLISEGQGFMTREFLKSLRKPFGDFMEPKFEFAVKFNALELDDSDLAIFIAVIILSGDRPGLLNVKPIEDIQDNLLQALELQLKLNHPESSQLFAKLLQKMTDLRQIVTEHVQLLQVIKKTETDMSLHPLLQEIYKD
Text: FIG. 13 depicts the fold induction of reporter constructs of Nurr1-LBD, PPARa-LBD, and PPARγ-LBD by different concentrations of PGH1, PGH2, PGJ2, and 15-d-PGJ2. […]

[1] = test system: LPS-induced immunoactivated mouse bone marrow-derived macrophages; assay: Pro-inflammatory gene expression in immune-activated mBMMs; format: cell-based; conditions: LPS- or poly(I:C)-induced immune-activated mBMMs, 18 hrs
Protocol: FIG. 25 show titrations of prostaglandin A1 (PGA1), A2 (PGA2), E1 (PGE1), E2 (PGE2) in LPS-induced immunoactivated mouse bone marrow-derived macrophages. […] The maximal effective concentration was 20 μM or 10 μg/ml.

PPARa-LBD = target: T2, PPARa-LBD (Homo sapiens, UniProt Q07869); assay: PPARa-LBD reporter construct transcriptional activation; format: cell-based
T2 construct: fold induction of reporter constructs of Nurr1-LBD, PPARa-LBD, and PPARγ-LBD; expressed in transfected cells
T2 sequence (Q07869 239-466 limits assumed): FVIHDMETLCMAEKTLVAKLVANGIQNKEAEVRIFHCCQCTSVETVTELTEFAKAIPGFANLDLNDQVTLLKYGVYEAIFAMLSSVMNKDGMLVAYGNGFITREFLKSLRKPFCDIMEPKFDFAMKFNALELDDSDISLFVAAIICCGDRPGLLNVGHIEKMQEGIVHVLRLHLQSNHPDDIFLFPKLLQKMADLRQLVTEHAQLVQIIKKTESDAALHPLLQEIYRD
Text: FIG. 13 depicts the fold induction of reporter constructs of Nurr1-LBD, PPARa-LBD, and PPARγ-LBD by different concentrations of PGH1, PGH2, PGJ2, and 15-d-PGJ2.

[2] = test system: primary cultured mDA neurons; assay: MPP+ toxicity in primary cultured mDA neurons; format: cell-based; conditions: MPP+ exposure
Text: MPP+exposure to mDA neurons decreases the number of TH positive dopaminergic neurons.

[3] = test system: MPTP-induced animal model of PD; assay: MPTP-induced animal model of PD; format: in vivo, mice; conditions: for TH density in the striatum / number of TH+ neurons in the SN: MPTP-treated mice, compared to saline-treated control mice; for latency to fall on a rotating rod (rotarod) / time to descent on the pole (pole test): day 6 following MPTP, compared to saline-treated mice
Text: FIG. 22A depicts a schematic representation of the administration of PGE1 or PGA1 to MPTP-induced animal model of PD. MPTP-treated mice were pre-administrated with PGE1, PGA1 or saline for 3 days before MPTP injection and post-treated for 5 days after MPTP injection.

[4] = test system: H9, human embryonic stem cell (hESC); assay: Dopaminergic differentiation of H9 hESC (real time PCR); format: cell-based; conditions: for expression level of Lmx1A / expression level of TH: 15 days of differentiation, compared to vehicle group
Protocol: After 15 days of differentiation procedure including floor plate induction (day1˜day6), neural precursor induction (day 6˜day 12), and dopaminergic precursor induction (day 12˜day 15), cells were harvested for RNA extraction and cDNA preparation. The real time PCR was performed using cDNA and the matching primers for FoxA2, Lmx1A, and TH to determine the level of dopaminergic differentiation.

In the case of `CCCCC[C@H](O)/C=C/[C@H]1OC(O)C[C@H](O)[C@@H]1C/C=C\CCCC(=O)O` (some centres unmarked) [TxB2, reference compound], the “transcriptional activity of Nurr1-LBD” value (Nurr1-LBD) is reported as “does not activate transcriptional function of Nurr1 and PPARγ; also recorded: failed to induce transcriptional activity of Nurr1-LBD” and the “transcriptional activity of PPARγ-LBD” value (PPARγ-LBD) is reported as “does not activate transcriptional function of Nurr1 and PPARγ; also recorded: failed to induce transcriptional activity of PPARγ-LBD”.

For `CCCCC[C@H](O)/C=C/C1=C(C/C=C\CCCC(=O)O)C(=O)CC1` [PGB2], the “transcriptional activity of Nurr1-LBD” value (Nurr1-LBD) was “increases transcriptional activity of Nurr1-LBD in a dose dependent manner” and the “transcriptional activity of PPARγ-LBD” value (PPARγ-LBD) was “activate transcriptional function of PPARγ in a dose-dependent manner”.

With `CC/C=C\C[C@H](O)/C=C/[C@H]1[C@H](O)CC(=O)[C@@H]1C/C=C\CCCC(=O)O` [PGE3] the “transcriptional activity of Nurr1-LBD” value (Nurr1-LBD) was “specifically and prominently activate the transcription function of Nurr1; also recorded: endogenous activators/agonists of Nurr1 function”.

For `CCCCC[C@H](O)/C=C/[C@H]1C=CC(=O)[C@@H]1C/C=C\CCCC(=O)O` [PGA2], the “transcriptional activity of Nurr1-LBD” value (Nurr1-LBD) was “increases transcriptional activity of Nurr1-LBD in a dose dependent manner”, the maximal effective concentration [1] was 20 μM and 10 μg/ml and the “suppression of pro-inflammatory genes TNFα, IL-1β, iNOS and IL-6” value (from here on “suppression”) [1] was “induced suppression of pro-inflammatory genes including TNFα, IL-1β, iNOS and IL-6 in a dose-dependent manner”.

With `CCCCC/C=C/C=C1/C(=O)C=C[C@@H]1C/C=C\CCCC(=O)O` [15-d-PGJ2] the “transcriptional activity of Nurr1-LBD” value (Nurr1-LBD) was “not Nurr1 LBD”, the “transcriptional activity of PPARγ-LBD” value (PPARγ-LBD) was “robustly activated PPARs; also recorded: increases transcriptional activity of PPARγ-LBD” and the “transcriptional activity of PPARalpha LBD” value (PPARa-LBD) was “robustly activated PPARs”.

`CCCCC[C@H](O)/C=C/C1C2CC(OO2)C1C/C=C\CCCC(=O)O` (some centres unmarked) [PGH2] was tested, and the “transcriptional activity of Nurr1-LBD” value (Nurr1-LBD) was “robustly activate the transcriptional activities of Nurr1 LBD; also recorded: increase transcriptional activity of Nurr1-LBD in a dose dependent manner” and the “transcriptional activity of PPARγ-LBD” value (PPARγ-LBD) was “failed to induce transcriptional activity of PPARγ-LBD”.

For `CCCCC[C@H](O)/C=C/[C@H]1C(=O)C=C[C@@H]1C/C=C\CCCC(=O)O` [PGJ2], the “transcriptional activity of Nurr1-LBD” value (Nurr1-LBD) was “not Nurr1 LBD”, the “transcriptional activity of PPARγ-LBD” value (PPARγ-LBD) was “robustly activated PPARs” and the “transcriptional activity of PPARalpha LBD” value (PPARa-LBD) was “robustly activated PPARs”.

In the case of `CCCCC[C@H](O)/C=C/[C@H]1[C@H](O)CC(=O)[C@@H]1C/C=C\CCCC(=O)O` [PGE2], the “transcriptional activity of Nurr1-LBD” value (Nurr1-LBD) is reported as “specifically and prominently activate the transcription function of Nurr1; also recorded: endogenous activators/agonists of Nurr1 function; also recorded: activate the transcriptional activity of Nurr1 in a dose-dependent manner; also recorded: increase transcriptional activity of Nurr1-LBD in a dose dependent manner”, the “transcriptional activity of PPARγ-LBD” value (PPARγ-LBD) is reported as “failed to induce transcriptional activity of PPARγ-LBD” and the maximal effective concentration [1] is reported as 20 μM and 10 μg/ml. The “suppression” value [1] was “induced suppression of pro-inflammatory genes including TNFα, IL-1β, iNOS and IL-6 in a dose-dependent manner”.

`CCCCC[C@H](O)/C=C/[C@H]1C=CC(=O)[C@@H]1CCCCCCC(=O)O` [PGA1, prostaglandin A1] was tested, and the “transcriptional activity of Nurr1-LBD” value (Nurr1-LBD) was “increases transcriptional activity of Nurr1-LBD in a dose dependent manner”, the “MPP+-induced loss of TH-positive mDA neurons” value [2] was “significantly rescued the MPP+-induced loss of TH-positive mDA neurons” and the “TH density in the striatum” value [3] was “retain”. The “number of TH+ neurons in the SN” value [3] was “retain a significant number”, the “latency to fall on a rotating rod (rotarod)” value [3] was “rescues impaired motor behaviors” and the “time to descent on the pole (pole test)” value [3] was “rescues impaired motor behaviors”. The “expression level of Lmx1A” value [4] was “significantly higher expression level of Lmx1A and TH”, the “expression level of TH” value [4] was “significantly higher expression level of Lmx1A and TH” and the maximal effective concentration [1] was 20 μM and 10 μg/ml. For the same compound, the “suppression” value [1] was “induced suppression of pro-inflammatory genes including TNFα, IL-1β, iNOS and IL-6 in a dose-dependent manner”.

In the case of `CC/C=C\C[C@H](O)/C=C/[C@H]1C=CC(=O)[C@@H]1C/C=C\CCCC(=O)O` [PGA3], the “transcriptional activity of Nurr1-LBD” value (Nurr1-LBD) is reported as “increases transcriptional activity of Nurr1-LBD in a dose dependent manner”.

`CC/C=C\CC(O)/C=C/C1=C(C/C=C\CCCC(=O)O)C(=O)CC1` (centres unmarked) [PGB3] was tested, and the “transcriptional activity of Nurr1-LBD” value (Nurr1-LBD) was “increases transcriptional activity of Nurr1-LBD in a dose dependent manner”.

In the case of `CCCCC[C@H](O)/C=C/C1=C(CCCCCCC(=O)O)C(=O)CC1` [PGB1], the “transcriptional activity of Nurr1-LBD” value (Nurr1-LBD) is reported as “increases transcriptional activity of Nurr1-LBD in a dose dependent manner”, the “transcriptional activity of PPARγ-LBD” value (PPARγ-LBD) is reported as “activate transcriptional function of PPARγ in a dose-dependent manner” and the “expression level of Lmx1A” value [4] is reported as “significantly higher expression level of Lmx1A and TH”. For the same compound, the “expression level of TH” value [4] was “significantly higher expression level of Lmx1A and TH”.

`CCCCC[C@H](O)/C=C/[C@H]1[C@H](O)CC(=O)[C@@H]1CCCCCCC(=O)O` [PGE1] was tested, and the “transcriptional activity of Nurr1-LBD” value (Nurr1-LBD) was “specifically and prominently activate the transcription function of Nurr1; also recorded: endogenous activators/agonists of Nurr1 function; also recorded: activate the transcriptional activity of Nurr1 in a dose-dependent manner; also recorded: increase transcriptional activity of Nurr1-LBD in a dose dependent manner”, the “transcriptional activity of PPARγ-LBD” value (PPARγ-LBD) was “failed to induce transcriptional activity of PPARγ-LBD” and the “MPP+-induced loss of TH-positive mDA neurons” value [2] was “significantly rescued the MPP+-induced loss of TH-positive mDA neurons”. For the same compound, the “TH density in the striatum” value [3] was “retain”, the “number of TH+ neurons in the SN” value [3] was “retain a significant number” and the “latency to fall on a rotating rod (rotarod)” value [3] was “rescues impaired motor behaviors”. The “time to descent on the pole (pole test)” value [3] was “rescues impaired motor behaviors”, the “TH expression compared with cAMP” value ([4]; 0.01 mM concentration) was “dramatic increase of TH expression in 0.01 mM concentration, which was even stronger than cAMP” and the “expression level of Lmx1A” value [4] was “significantly higher expression level of Lmx1A and TH”. For the same compound, the “expression level of TH” value [4] was “significantly higher expression level of Lmx1A and TH”, the maximal effective concentration [1] was 20 μM and 10 μg/ml and the “suppression” value [1] was “induced suppression of pro-inflammatory genes including TNFα, IL-1β, iNOS and IL-6 in a dose-dependent manner”.

In the case of `CCCCC[C@H](O)/C=C/[C@@H]1[C@@H](CCCCCCC(=O)O)[C@@H](O)C[C@H]1O` [PGF2a], the “transcriptional activity of Nurr1-LBD” value (Nurr1-LBD) is reported as “activates transcriptional function of Nurr1; also recorded: increases transcriptional activity of Nurr1-LBD in a dose dependent manner” and the “transcriptional activity of PPARγ-LBD” value (PPARγ-LBD) is reported as “failed to induce transcriptional activity of PPARγ-LBD”.
